One experiment addresses T1, Estrogen receptor (Homo sapiens, UniProt P03372).
T1 sequence (P03372 whole entry): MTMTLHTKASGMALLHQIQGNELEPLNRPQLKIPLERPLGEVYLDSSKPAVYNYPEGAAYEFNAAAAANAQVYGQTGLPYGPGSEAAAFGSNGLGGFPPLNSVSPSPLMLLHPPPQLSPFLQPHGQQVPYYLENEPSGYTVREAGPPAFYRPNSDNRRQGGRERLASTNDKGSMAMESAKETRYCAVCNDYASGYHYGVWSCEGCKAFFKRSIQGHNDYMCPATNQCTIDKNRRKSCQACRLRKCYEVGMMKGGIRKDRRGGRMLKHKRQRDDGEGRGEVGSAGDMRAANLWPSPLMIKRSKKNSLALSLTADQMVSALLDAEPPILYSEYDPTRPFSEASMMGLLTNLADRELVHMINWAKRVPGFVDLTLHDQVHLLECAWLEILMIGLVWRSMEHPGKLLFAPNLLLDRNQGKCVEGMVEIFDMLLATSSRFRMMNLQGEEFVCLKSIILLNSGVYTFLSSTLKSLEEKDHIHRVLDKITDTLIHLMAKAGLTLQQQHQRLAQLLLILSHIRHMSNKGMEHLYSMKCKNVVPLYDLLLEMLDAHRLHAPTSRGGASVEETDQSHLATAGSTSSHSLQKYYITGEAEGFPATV
The experiment in a line: potentiators of ERα–SRC-1 coactivator binding, dose response, biochemical, TR-FRET, ERα LBD (AID 737). (In TR-FRET formats the signal depends on donor and acceptor labels being close together.)

The target in experiment [1] is T2, Corticotropin-releasing factor receptor 2/Corticotropin-releasing factor-binding protein (Homo sapiens, UniProt P24387+Q13324).
T2 sequence (Q13324 whole entry): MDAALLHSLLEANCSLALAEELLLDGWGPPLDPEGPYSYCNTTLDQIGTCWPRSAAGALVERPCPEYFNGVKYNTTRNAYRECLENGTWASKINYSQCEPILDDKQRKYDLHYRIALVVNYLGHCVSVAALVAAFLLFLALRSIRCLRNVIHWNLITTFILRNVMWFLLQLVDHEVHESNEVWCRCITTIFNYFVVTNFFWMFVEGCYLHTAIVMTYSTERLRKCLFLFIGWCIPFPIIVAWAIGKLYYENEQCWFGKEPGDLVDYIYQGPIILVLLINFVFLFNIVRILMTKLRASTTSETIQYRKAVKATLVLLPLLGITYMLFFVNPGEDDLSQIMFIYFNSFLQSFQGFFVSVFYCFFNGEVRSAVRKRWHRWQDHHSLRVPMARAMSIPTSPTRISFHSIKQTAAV
T2 sequence (P24387 whole entry): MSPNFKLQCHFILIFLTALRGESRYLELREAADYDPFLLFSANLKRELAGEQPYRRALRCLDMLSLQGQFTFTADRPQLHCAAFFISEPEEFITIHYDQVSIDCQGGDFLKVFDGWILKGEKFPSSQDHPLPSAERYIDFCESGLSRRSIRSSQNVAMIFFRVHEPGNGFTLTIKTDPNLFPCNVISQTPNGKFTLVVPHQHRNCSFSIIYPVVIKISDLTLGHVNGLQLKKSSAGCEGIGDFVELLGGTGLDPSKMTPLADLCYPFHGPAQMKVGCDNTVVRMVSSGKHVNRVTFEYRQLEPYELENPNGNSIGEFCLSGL
The experiment in a line: activators of CRF receptor 2 with binding protein – uHTS hits, confirmation (AID 602473). The format is functional. The following applies: read-out: EC50_Mean.

The target in experiment [2] is T2, Corticotropin-releasing factor receptor 2/Corticotropin-releasing factor-binding protein. The experiment in a line: Dose Response confirmation of uHTS hits for small molecule antagonists of the CRF-binding protein and CRF-R2 receptor complex. The format is functional. As to conditions: read-out: IC50_Mean.
The target in a further experiment is Bcl-2-like protein 10 (Homo sapiens, UniProt Q9HD36). The experiment in a line: Biochemical TR3 FP assay of Bcl-B inhibitor potency, EC50 (AID 1243). The format is functional.
The target of experiment [3] is T3, Calpain-2 catalytic subunit (Sus scrofa, UniProt P43367).
T3 sequence (P43367 whole entry): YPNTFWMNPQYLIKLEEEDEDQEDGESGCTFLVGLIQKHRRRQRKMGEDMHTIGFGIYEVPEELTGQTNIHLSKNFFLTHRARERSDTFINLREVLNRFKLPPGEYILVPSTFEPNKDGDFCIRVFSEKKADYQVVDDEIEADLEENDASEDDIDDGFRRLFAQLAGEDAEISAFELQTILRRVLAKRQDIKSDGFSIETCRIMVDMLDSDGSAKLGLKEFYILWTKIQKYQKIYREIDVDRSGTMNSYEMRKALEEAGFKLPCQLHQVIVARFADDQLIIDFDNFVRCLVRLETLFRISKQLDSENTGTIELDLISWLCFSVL
The experiment in a line: pig calpain II inhibitor potency, dose response, biochemical, fluorogenic peptide substrate (AID 1420). The format is functional.

The target in experiment [4] is Lytic switch protein BZLF1 (Epstein-Barr virus (strain B95-8) (HHV-4) (Human herpesvirus 4), UniProt P03206). The experiment in a line: EBV ZTA inhibitors, dose response, counter-screen for EBNA-1 inhibitor project, biochemical, fluorescence polarization, Epstein-Barr virus, 1536-well (AID 2377).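 Also: fluorescence polarization of Cy5-labelled ZRE DNA probe bound by purified Zta.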 Set-up: species or system human gammaherpesvirus 4. For orientation: Counterscreens check selectivity or assay interference.

For experiment [5], the target named is Epstein-Barr nuclear antigen 1 (Epstein-Barr virus (strain B95-8) (HHV-4) (Human herpesvirus 4), UniProt P03211). The experiment in a line: EBNA-1 inhibitors, dose response, biochemical, fluorescence polarization, 1536-well (AID 2381).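 Also: fluorescence polarization of a Cy5 DNA probe bound by EBNA-1 protein.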 Set-up: species or system human gammaherpesvirus 4. Background: In fluorescence polarisation assays a small probe gives low polarisation when free and higher when bound to something large.

In experiment [6] the target is Potassium voltage-gated channel subfamily KQT member 2 (Rattus norvegicus, UniProt O88943, W236L). The experiment in a line: KCNQ2 channel potentiators, dose response, mechanism study for KCNQ2 potentiator project, cell-based, automated electrophysiology (AID 2603). In kind it is functional.
Experiment [7] has as its target Hepatocyte nuclear factor 4-alpha (Homo sapiens, UniProt P41235). In kind it is functional, cell-based.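 Also: biochemical luminescence-based dose-response counterscreen measuring inhibition of HNF4 dimerization, run alongside a screen for blockers of ABHD5–perilipin-5 interaction; split luciferase complementation of HNF4 fusion proteins in cell lysate measuring dimerization.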
Another experiment concerns the target Genome polyprotein (dengue virus type 2, UniProt P29990). The experiment in a line: Dengue-2 NS5 methyltransferase inhibitors, primary screen, biochemical, confirmation dose response (AID 588689). In kind it is functional.
The target of the next experiment is T4, Protein RecA (Mycobacterium tuberculosis, UniProt P9WHJ3).
T4 sequence (P9WHJ3 whole entry): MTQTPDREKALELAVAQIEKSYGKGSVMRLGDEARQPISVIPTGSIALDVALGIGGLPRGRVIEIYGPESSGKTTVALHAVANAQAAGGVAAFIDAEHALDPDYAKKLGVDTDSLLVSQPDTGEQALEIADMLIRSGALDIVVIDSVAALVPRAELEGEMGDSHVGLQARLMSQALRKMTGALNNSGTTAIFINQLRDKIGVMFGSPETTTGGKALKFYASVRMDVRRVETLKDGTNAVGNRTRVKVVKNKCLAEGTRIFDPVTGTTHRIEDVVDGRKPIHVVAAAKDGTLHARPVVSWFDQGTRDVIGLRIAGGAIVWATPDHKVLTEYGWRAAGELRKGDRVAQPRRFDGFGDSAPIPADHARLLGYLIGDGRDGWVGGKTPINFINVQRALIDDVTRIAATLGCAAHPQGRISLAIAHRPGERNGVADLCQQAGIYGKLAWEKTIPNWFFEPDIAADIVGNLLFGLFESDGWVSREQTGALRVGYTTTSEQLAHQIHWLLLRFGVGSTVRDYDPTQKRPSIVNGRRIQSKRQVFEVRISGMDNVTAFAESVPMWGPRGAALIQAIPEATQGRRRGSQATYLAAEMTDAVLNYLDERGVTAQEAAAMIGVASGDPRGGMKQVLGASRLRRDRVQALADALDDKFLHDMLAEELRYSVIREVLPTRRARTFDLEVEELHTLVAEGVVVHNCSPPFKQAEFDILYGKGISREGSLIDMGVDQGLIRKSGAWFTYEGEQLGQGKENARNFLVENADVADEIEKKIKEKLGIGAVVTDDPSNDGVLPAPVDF
The experiment in a line: Fluorescence Cell-Free Homogeneous Dose Retest to Identify Inhibitors of RecA-Intein Splicing Activity. [Related pubchem assays (depositor defined):AID2097, AID2223, AID489010, AID492950]. The format is functional.

Experiment [8] is described as follows: control 3'UTR Renilla luciferase suppression, dose response, counter-screen for Shn3 inhibitor project, cell-based, Clone20-Shn3RL, cherry-picked (AID 624133). In kind it is functional.
The target in experiment [9] is T5, Replicative DNA helicase DnaB (Mycobacterium tuberculosis, UniProt P9WMR3).
T5 sequence (P9WMR3 whole entry): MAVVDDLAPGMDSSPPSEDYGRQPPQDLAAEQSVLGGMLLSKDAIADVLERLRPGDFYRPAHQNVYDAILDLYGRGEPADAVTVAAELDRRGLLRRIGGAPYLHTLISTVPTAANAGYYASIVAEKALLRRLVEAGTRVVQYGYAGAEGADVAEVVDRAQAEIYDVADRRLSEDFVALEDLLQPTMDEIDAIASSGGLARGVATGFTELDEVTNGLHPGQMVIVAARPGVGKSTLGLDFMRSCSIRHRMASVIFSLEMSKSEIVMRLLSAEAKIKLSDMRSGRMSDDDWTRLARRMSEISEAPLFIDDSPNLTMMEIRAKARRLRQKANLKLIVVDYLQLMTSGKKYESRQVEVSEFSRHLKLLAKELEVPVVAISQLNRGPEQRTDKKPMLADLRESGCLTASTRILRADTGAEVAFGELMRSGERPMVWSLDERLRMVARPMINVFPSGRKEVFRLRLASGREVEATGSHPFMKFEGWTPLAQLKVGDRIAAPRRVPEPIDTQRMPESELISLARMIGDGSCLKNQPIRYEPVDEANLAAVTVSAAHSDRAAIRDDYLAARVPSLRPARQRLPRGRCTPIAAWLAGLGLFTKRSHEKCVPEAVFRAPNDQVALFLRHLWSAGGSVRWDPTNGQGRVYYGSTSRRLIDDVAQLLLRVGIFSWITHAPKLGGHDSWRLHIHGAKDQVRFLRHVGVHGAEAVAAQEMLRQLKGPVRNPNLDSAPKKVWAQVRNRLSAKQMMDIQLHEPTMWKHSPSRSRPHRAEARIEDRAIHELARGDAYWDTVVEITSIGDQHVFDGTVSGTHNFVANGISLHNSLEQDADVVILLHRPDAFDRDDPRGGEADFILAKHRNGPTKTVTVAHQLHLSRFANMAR
The experiment in a line: DnaB intein splicing inhibitors, dose response, biochemical, cell-free fluorescence (AID 449749). The format is functional.

Experiment [10] in a line: Intein inhibitors as potential Tuberculosis drugs, a cytotoxicity screen. [Related pubchem assays (depositor defined):AID2221, AID2223, AID434968, AID435010, AID449749, AID449750, AID489010]. The format is functional.
A further experiment has as its system Vero. The experiment in a line: Vero cell cytotoxicity, cytotoxicity control for flavivirus capping enzyme inhibitors (AID 588742). The following applies: Chlorocebus sabaeus. In kind it is functional.
The nature of experiment [11]: Luminescence Cell-Based Dose Retest to Confirm Inhibitors of Cancer Stem Cells. [Related pubchem assays (depositor defined):AID2717, AID2721]. The format is functional. The following applies: Homo sapiens.
Experiment [12] in a line: Shn3 3'UTR reporter inhibitors, dose response, cell-based, Clone20 osteoblasts, firefly luciferase, cherry-picked (AID 624132).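 Also: firefly luciferase luminescence from reporter carrying the Shn3 3'UTR in osteoblasts.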 In kind it is functional.
The target of experiment [13] is T6, Mannose-6-phosphate isomerase (Homo sapiens, UniProt P34949).
T6 sequence (P34949 whole entry): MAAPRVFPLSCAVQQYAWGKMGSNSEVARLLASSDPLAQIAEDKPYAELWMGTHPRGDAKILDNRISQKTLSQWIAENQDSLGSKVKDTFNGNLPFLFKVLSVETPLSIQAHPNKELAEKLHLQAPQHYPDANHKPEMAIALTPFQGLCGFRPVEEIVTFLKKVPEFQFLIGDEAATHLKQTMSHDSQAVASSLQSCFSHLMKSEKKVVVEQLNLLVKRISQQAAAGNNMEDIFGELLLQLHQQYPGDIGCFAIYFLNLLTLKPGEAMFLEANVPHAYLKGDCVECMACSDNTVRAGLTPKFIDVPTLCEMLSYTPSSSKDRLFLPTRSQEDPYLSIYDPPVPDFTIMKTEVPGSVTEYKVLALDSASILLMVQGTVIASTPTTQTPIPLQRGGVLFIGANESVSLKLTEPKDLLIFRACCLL
The experiment in a line: inhibitors of human PMI, primary screen, biochemical, fluorescence intensity, coupled assay (AID 1209).

A word on the AC50: it is the concentration at which the activity in the assay is half-maximal. One may read the CC50 as the concentration that lowers cell viability or growth by half.

Calls of active or inactive are those of the source. Where only a bound is given, the exact number is not on record here.

Potassium voltage-gated channel subfamily KQT member 2, sequence (O88943 whole entry W236L, the tested form may be a part): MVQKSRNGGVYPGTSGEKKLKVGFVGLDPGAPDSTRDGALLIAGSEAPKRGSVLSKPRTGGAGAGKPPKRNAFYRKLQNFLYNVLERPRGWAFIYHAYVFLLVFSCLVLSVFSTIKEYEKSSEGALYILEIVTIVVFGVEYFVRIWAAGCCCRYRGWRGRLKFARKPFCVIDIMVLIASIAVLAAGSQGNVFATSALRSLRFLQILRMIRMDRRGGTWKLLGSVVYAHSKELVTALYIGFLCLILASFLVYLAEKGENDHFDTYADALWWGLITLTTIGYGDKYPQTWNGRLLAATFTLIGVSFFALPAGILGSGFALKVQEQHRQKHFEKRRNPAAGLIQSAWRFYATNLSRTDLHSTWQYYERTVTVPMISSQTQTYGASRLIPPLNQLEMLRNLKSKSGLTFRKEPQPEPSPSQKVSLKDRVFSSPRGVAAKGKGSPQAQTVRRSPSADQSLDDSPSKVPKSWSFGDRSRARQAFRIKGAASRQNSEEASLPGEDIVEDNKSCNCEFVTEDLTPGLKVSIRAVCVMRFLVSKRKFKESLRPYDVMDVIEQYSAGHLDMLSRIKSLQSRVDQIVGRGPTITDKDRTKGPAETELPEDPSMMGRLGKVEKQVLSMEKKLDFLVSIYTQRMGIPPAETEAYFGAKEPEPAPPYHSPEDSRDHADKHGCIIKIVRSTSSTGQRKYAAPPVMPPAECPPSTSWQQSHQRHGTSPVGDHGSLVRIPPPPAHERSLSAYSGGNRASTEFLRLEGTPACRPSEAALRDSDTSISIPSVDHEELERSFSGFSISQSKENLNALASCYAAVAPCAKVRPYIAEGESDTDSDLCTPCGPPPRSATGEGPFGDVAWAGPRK
Epstein-Barr nuclear antigen 1, sequence (P03211 whole entry): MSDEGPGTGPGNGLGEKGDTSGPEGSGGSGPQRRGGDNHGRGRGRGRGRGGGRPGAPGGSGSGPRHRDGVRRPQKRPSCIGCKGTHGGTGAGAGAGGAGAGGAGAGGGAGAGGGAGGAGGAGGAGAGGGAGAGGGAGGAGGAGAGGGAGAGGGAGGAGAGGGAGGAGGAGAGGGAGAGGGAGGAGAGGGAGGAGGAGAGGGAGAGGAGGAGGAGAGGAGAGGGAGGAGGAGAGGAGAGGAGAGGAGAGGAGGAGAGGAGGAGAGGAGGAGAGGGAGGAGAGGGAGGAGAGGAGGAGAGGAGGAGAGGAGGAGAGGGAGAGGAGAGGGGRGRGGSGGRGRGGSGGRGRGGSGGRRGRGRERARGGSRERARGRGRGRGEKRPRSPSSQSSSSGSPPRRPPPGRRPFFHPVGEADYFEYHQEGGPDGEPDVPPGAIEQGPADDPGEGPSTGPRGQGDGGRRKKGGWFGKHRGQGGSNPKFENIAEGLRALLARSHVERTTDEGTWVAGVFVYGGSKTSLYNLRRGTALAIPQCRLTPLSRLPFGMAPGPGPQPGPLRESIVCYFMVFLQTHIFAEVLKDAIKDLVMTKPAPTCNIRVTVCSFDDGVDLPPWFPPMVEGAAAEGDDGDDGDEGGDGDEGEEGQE
Bcl-2-like protein 10, sequence (Q9HD36 whole entry): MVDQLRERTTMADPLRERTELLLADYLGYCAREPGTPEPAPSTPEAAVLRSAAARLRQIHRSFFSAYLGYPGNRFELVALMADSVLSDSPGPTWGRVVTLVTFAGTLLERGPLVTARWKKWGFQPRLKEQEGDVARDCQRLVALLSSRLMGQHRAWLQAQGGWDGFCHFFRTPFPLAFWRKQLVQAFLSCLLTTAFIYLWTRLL
Hepatocyte nuclear factor 4-alpha, sequence (P41235 whole entry, the tested form may be a part): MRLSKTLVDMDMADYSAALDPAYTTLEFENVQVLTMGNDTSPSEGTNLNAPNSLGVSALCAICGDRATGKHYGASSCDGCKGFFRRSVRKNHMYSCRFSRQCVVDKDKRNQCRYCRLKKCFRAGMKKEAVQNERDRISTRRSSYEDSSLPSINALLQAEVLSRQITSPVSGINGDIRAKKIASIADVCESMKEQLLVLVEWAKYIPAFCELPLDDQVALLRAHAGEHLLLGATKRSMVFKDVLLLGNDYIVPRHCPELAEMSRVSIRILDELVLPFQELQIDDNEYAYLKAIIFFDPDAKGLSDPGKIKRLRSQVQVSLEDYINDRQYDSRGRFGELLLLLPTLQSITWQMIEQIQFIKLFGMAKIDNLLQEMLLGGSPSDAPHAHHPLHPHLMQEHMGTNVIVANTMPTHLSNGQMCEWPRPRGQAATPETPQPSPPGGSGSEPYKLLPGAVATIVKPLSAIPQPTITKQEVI
Genome polyprotein, sequence (P29990 2492-3391 limits assumed): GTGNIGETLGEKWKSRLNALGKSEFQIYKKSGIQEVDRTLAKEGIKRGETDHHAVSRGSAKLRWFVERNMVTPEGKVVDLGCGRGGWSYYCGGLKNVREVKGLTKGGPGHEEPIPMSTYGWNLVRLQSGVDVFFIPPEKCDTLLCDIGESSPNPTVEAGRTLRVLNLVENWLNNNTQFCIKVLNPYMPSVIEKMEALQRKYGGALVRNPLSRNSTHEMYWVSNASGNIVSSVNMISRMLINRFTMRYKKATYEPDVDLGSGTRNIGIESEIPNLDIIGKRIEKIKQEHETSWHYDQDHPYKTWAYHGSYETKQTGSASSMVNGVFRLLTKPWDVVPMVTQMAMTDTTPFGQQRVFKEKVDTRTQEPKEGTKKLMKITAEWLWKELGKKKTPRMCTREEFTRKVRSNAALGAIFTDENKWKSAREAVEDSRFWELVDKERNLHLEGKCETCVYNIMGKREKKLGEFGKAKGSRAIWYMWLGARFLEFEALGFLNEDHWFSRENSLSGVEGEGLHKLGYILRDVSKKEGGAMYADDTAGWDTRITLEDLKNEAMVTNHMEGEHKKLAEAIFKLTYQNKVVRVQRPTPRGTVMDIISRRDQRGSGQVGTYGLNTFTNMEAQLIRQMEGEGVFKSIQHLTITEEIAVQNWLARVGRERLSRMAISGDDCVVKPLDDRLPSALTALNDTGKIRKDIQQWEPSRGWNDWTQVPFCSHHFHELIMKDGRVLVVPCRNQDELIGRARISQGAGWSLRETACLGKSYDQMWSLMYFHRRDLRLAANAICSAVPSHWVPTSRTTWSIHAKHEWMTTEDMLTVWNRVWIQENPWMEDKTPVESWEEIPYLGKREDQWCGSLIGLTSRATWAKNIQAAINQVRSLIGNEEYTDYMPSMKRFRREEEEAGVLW
Lytic switch protein BZLF1, sequence (P03206 whole entry): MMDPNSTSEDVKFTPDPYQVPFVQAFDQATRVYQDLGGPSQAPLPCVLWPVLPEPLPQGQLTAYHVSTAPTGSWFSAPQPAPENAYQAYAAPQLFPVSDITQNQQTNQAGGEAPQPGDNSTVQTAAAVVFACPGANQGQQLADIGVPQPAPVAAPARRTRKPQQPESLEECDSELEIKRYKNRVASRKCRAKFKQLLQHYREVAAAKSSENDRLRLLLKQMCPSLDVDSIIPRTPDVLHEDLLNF

With `COC(=O)c1ccc(CSc2nc3c(cnn3-c3ccc(F)cc3)c(=O)[nH]2)o1`, the values for the EC50 (on Estrogen receptor; in [1]) were 12.9 µM (not active) and > 53 µM (inactive), respectively. The IC50 in experiment [2] is > 47.1 µM (inactive).
In the case of `Clc1ccc(C2C=C(c3ccccc3)Nc3ncnn32)cc1` (stereo not drawn), the EC50 at Bcl-2-like protein 10 is 14.2 µM (active).
As to `CCOC(=O)c1ccc(NC(=O)C2CC(=O)Nc3nc4ccccc4n32)cc1` (stereo not drawn), the IC50 in experiment [3] is > 50 µM (not active); in [4], > 111 µM (not active); in [5] it was > 5.47 µM (active).
Consider `CSc1nnc(NC(=O)c2nc(S(=O)(=O)Cc3ccccc3F)ncc2Cl)s1`, for which the EC50 in [6] is 4.19 µM (active); at Protein RecA, 3.5 µM (active). The IC50 in [7] is 3.98 µM (active); on Genome polyprotein, 52.3 µM (active). Also, the AC50 in experiment [8] is 13 µM (active); in experiment [9] it was 5 µM (active); in [11], 2.14 µM (active); in experiment [12], 1.55 µM (active). In addition, the half-maximal cytotoxic concentration (CC50) in experiment [10] is 35.4 µM (active); in the experiment with Vero, 27.8 µM (active).
Turning to `CCOC(=O)NC1(Nc2cccc(Cl)c2)Oc2ccccc2O1`, the IC50 in experiment [13] is reported as > 50 µM (not active).

Source of the values: ChEMBL document CHEMBL1201862, “PubChem BioAssay data set” (2004).
